Experimental data published in ChEMBL document CHEMBL4184155, “Resveratrol analogues like piceatannol are potent antioxidants as quantitatively demonstrated through the high scavenging ability against reactive oxygen species and methyl radical” (Bioorg Med Chem Lett, 2017).

experiment: Antioxidant activity assessed as Trolox equivalents of photolysis-induced hydroxyl radical scavenging activity using DMPO spin trap by ESR spectroscopic method; type: functional

Question: For `COc1ccc(/C=C/c2cc(O)cc(O)c2)cc1O`, which Activity is on record?
Answer: 0.71 equiv

Question: For `COc1cc(/C=C/c2ccc(OC)c(OC)c2)cc(OC)c1`, which Activity is on record?
Answer: 0.8 equiv

Question: Which Activity does the source give for `COc1cc(/C=C/c2ccc(O)cc2)cc(OC)c1` here?
Answer: 0.47 equiv

Question: For `Oc1cc(O)cc(/C=C/c2ccc(O)cc2O)c1`, which Activity is on record?
Answer: 0.68 equiv

Question: Which Activity does the source give for `Oc1cc(O)cc(/C=C/c2ccc(O)c(O)c2)c1` here?
Answer: 2.78 equiv

Question: Which Activity does the source give for `Oc1ccc(/C=C/c2cc(O)cc(O)c2)cc1` here?
Answer: 0.5 equiv

experiment: Antioxidant activity assessed as Trolox equivalents of photolysis-induced methyl radical scavenging activity using DMPO spin trap by ESR spectroscopic method; type: functional

Question: With `COc1ccc(/C=C/c2cc(O)cc(O)c2)cc1O` as the compound, how does the Activity read?
Answer: 0.04 equiv

Question: With `COc1cc(/C=C/c2ccc(OC)c(OC)c2)cc(OC)c1` as the compound, how does the Activity read?
Answer: -0 equiv

Question: For `COc1cc(/C=C/c2ccc(O)cc2)cc(OC)c1`, which Activity is on record?
Answer: -0 equiv

Question: With `Oc1cc(O)cc(/C=C/c2ccc(O)cc2O)c1` as the compound, how does the Activity read?
Answer: 0.08 equiv

Question: Which Activity does the source give for `Oc1cc(O)cc(/C=C/c2ccc(O)c(O)c2)c1` here?
Answer: 0.11 equiv

Question: For `Oc1ccc(/C=C/c2cc(O)cc(O)c2)cc1`, which Activity is on record?
Answer: -0 equiv

experiment: Antioxidant activity assessed as Trolox equivalents of photolysis-induced alkoxyl scavenging activity using DMPO spin trap by ESR spectroscopic method; type: functional

Question: For `COc1ccc(/C=C/c2cc(O)cc(O)c2)cc1O`, which Activity is on record?
Answer: 0.1 equiv

Question: With `COc1cc(/C=C/c2ccc(OC)c(OC)c2)cc(OC)c1` as the compound, how does the Activity read?
Answer: 0.21 equiv

Question: For `COc1cc(/C=C/c2ccc(O)cc2)cc(OC)c1`, which Activity is on record?
Answer: 0.11 equiv

Question: With `Oc1cc(O)cc(/C=C/c2ccc(O)cc2O)c1` as the compound, how does the Activity read?
Answer: 0.17 equiv

Question: Which Activity does the source give for `Oc1cc(O)cc(/C=C/c2ccc(O)c(O)c2)c1` here?
Answer: 0.36 equiv

Question: Which Activity does the source give for `Oc1ccc(/C=C/c2cc(O)cc(O)c2)cc1` here?
Answer: 0.2 equiv

experiment: Antioxidant activity assessed as Trolox equivalents of photolysis-induced peroxyl scavenging activity using CYPMPO spin trap by ESR spectroscopic method; type: functional

Question: Which Activity does the source give for `COc1ccc(/C=C/c2cc(O)cc(O)c2)cc1O` here?
Answer: 0.71 equiv

Question: With `COc1cc(/C=C/c2ccc(OC)c(OC)c2)cc(OC)c1` as the compound, how does the Activity read?
Answer: 0.3 equiv

Question: For `COc1cc(/C=C/c2ccc(O)cc2)cc(OC)c1`, which Activity is on record?
Answer: 0.88 equiv

Question: Which Activity does the source give for `Oc1cc(O)cc(/C=C/c2ccc(O)cc2O)c1` here?
Answer: 0.67 equiv

Question: Which Activity does the source give for `Oc1cc(O)cc(/C=C/c2ccc(O)c(O)c2)c1` here?
Answer: 7.7 equiv

Question: With `Oc1ccc(/C=C/c2cc(O)cc(O)c2)cc1` as the compound, how does the Activity read?
Answer: 0.69 equiv

experiment: Antioxidant activity assessed as Trolox equivalents of photolysis-induced superoxide anion scavenging activity using CYPMPO spin trap by ESR spectroscopic method; type: functional

Question: For `COc1ccc(/C=C/c2cc(O)cc(O)c2)cc1O`, which Activity is on record?
Answer: 0.84 equiv

Question: For `COc1cc(/C=C/c2ccc(OC)c(OC)c2)cc(OC)c1`, which Activity is on record?
Answer: -0 equiv

Question: For `COc1cc(/C=C/c2ccc(O)cc2)cc(OC)c1`, which Activity is on record?
Answer: 0.42 equiv

Question: For `Oc1cc(O)cc(/C=C/c2ccc(O)cc2O)c1`, which Activity is on record?
Answer: 0.45 equiv

Question: For `Oc1cc(O)cc(/C=C/c2ccc(O)c(O)c2)c1`, which Activity is on record?
Answer: 1.86 equiv

Question: Which Activity does the source give for `Oc1ccc(/C=C/c2cc(O)cc(O)c2)cc1` here?
Answer: 0.4 equiv

experiment: Antioxidant activity assessed as Trolox equivalents of photolysis-induced singlet oxygen scavenging activity using 4-HO-TEMP spin trap by ESR spectroscopic method; type: functional

Question: For `COc1ccc(/C=C/c2cc(O)cc(O)c2)cc1O`, which Activity is on record?
Answer: 3.7 equiv

Question: Which Activity does the source give for `COc1cc(/C=C/c2ccc(OC)c(OC)c2)cc(OC)c1` here?
Answer: 0.11 equiv

Question: With `COc1cc(/C=C/c2ccc(O)cc2)cc(OC)c1` as the compound, how does the Activity read?
Answer: 2 equiv

Question: Which Activity does the source give for `Oc1cc(O)cc(/C=C/c2ccc(O)cc2O)c1` here?
Answer: 3.4 equiv

Question: For `Oc1cc(O)cc(/C=C/c2ccc(O)c(O)c2)c1`, which Activity is on record?
Answer: 7 equiv

Question: For `Oc1ccc(/C=C/c2cc(O)cc(O)c2)cc1`, which Activity is on record?
Answer: 3 equiv

experiment: Antioxidant activity assessed as relative scavenging rate constant for photolysis-induced hydroxyl radical scavenging activity by measuring Kaox/Kst ratio using DMPO spin trap by ESR spectroscopic method; type: functional

Question: For `COc1ccc(/C=C/c2cc(O)cc(O)c2)cc1O`, which Ratio is on record?
Answer: 22.6

Question: With `COc1cc(/C=C/c2ccc(OC)c(OC)c2)cc(OC)c1` as the compound, how does the Ratio read?
Answer: 25.6

Question: With `Cc1c(C)c2c(c(C)c1O)CCC(C)(C(=O)O)O2` (centres undefined) as the compound, how does the Ratio read?
Answer: 31.9

Question: Which Ratio does the source give for `COc1cc(/C=C/c2ccc(O)cc2)cc(OC)c1` here?
Answer: 14.9

Question: With `Oc1cc(O)cc(/C=C/c2ccc(O)cc2O)c1` as the compound, how does the Ratio read?
Answer: 21.8

Question: For `Oc1cc(O)cc(/C=C/c2ccc(O)c(O)c2)c1`, which Ratio is on record?
Answer: 88.8

Question: For `Oc1ccc(/C=C/c2cc(O)cc(O)c2)cc1`, which Ratio is on record?
Answer: 15.8

experiment: Antioxidant activity assessed as relative scavenging rate constant for photolysis-induced methyl radical scavenging activity by measuring Kaox/Kst ratio using DMPO spin trap by ESR spectroscopic method; type: functional

Question: For `COc1ccc(/C=C/c2cc(O)cc(O)c2)cc1O`, which Ratio is on record?
Answer: 2.21

Question: Which Ratio does the source give for `COc1cc(/C=C/c2ccc(OC)c(OC)c2)cc(OC)c1` here?
Answer: -0

Question: With `Cc1c(C)c2c(c(C)c1O)CCC(C)(C(=O)O)O2` (centres undefined) as the compound, how does the Ratio read?
Answer: 50

Question: With `COc1cc(/C=C/c2ccc(O)cc2)cc(OC)c1` as the compound, how does the Ratio read?
Answer: -0

Question: With `Oc1cc(O)cc(/C=C/c2ccc(O)cc2O)c1` as the compound, how does the Ratio read?
Answer: 3.98

Question: With `Oc1cc(O)cc(/C=C/c2ccc(O)c(O)c2)c1` as the compound, how does the Ratio read?
Answer: 5.65

Question: With `Oc1ccc(/C=C/c2cc(O)cc(O)c2)cc1` as the compound, how does the Ratio read?
Answer: -0

experiment: Antioxidant activity assessed as relative scavenging rate constant for photolysis-induced alkoxyl scavenging activity by measuring Kaox/Kst ratio using DMPO spin trap by ESR spectroscopic method; type: functional

Question: With `COc1ccc(/C=C/c2cc(O)cc(O)c2)cc1O` as the compound, how does the Ratio read?
Answer: 11.9

Question: Which Ratio does the source give for `COc1cc(/C=C/c2ccc(OC)c(OC)c2)cc(OC)c1` here?
Answer: 24.4

Question: For `Cc1c(C)c2c(c(C)c1O)CCC(C)(C(=O)O)O2` (centres undefined), which Ratio is on record?
Answer: 115

Question: Which Ratio does the source give for `COc1cc(/C=C/c2ccc(O)cc2)cc(OC)c1` here?
Answer: 13

Question: Which Ratio does the source give for `Oc1cc(O)cc(/C=C/c2ccc(O)cc2O)c1` here?
Answer: 19

Question: With `Oc1cc(O)cc(/C=C/c2ccc(O)c(O)c2)c1` as the compound, how does the Ratio read?
Answer: 41.2

Question: For `Oc1ccc(/C=C/c2cc(O)cc(O)c2)cc1`, which Ratio is on record?
Answer: 23.3

experiment: Antioxidant activity assessed as relative scavenging rate constant for photolysis-induced peroxyl scavenging activity by measuring Kaox/Kst ratio using CYPMPO spin trap by ESR spectroscopic method; type: functional

Question: With `COc1ccc(/C=C/c2cc(O)cc(O)c2)cc1O` as the compound, how does the Ratio read?
Answer: 21.1

Question: With `COc1cc(/C=C/c2ccc(OC)c(OC)c2)cc(OC)c1` as the compound, how does the Ratio read?
Answer: 8.52

Question: Which Ratio does the source give for `Cc1c(C)c2c(c(C)c1O)CCC(C)(C(=O)O)O2` (centres undefined) here?
Answer: 28.3

Question: Which Ratio does the source give for `COc1cc(/C=C/c2ccc(O)cc2)cc(OC)c1` here?
Answer: 24.8

Question: With `Oc1cc(O)cc(/C=C/c2ccc(O)cc2O)c1` as the compound, how does the Ratio read?
Answer: 18.9

Question: For `Oc1cc(O)cc(/C=C/c2ccc(O)c(O)c2)c1`, which Ratio is on record?
Answer: 218

Question: For `Oc1ccc(/C=C/c2cc(O)cc(O)c2)cc1`, which Ratio is on record?
Answer: 19.6

experiment: Antioxidant activity assessed as relative scavenging rate constant for photolysis-induced super-oxide anion scavenging activity by measuring Kaox/Kst ratio using CYPMPO spin trap by ESR spectroscopic method; type: functional

Question: Which Ratio does the source give for `COc1ccc(/C=C/c2cc(O)cc(O)c2)cc1O` here?
Answer: 70.5

Question: With `COc1cc(/C=C/c2ccc(OC)c(OC)c2)cc(OC)c1` as the compound, how does the Ratio read?
Answer: -0

Question: With `Cc1c(C)c2c(c(C)c1O)CCC(C)(C(=O)O)O2` (centres undefined) as the compound, how does the Ratio read?
Answer: 83.9

Question: Which Ratio does the source give for `COc1cc(/C=C/c2ccc(O)cc2)cc(OC)c1` here?
Answer: 35.6

Question: For `Oc1cc(O)cc(/C=C/c2ccc(O)cc2O)c1`, which Ratio is on record?
Answer: 37.4

Question: With `Oc1cc(O)cc(/C=C/c2ccc(O)c(O)c2)c1` as the compound, how does the Ratio read?
Answer: 156

Question: With `Oc1ccc(/C=C/c2cc(O)cc(O)c2)cc1` as the compound, how does the Ratio read?
Answer: 33.4

experiment: Antioxidant activity assessed as relative scavenging rate constant for photolysis-induced singlet oxygen scavenging activity by measuring Kaox/Kst ratio using 4-HO-TEMP spin trap by ESR spectroscopic method; type: functional

Question: With `COc1ccc(/C=C/c2cc(O)cc(O)c2)cc1O` as the compound, how does the Ratio read?
Answer: 8780

Question: For `COc1cc(/C=C/c2ccc(OC)c(OC)c2)cc(OC)c1`, which Ratio is on record?
Answer: 268

Question: With `Cc1c(C)c2c(c(C)c1O)CCC(C)(C(=O)O)O2` (centres undefined) as the compound, how does the Ratio read?
Answer: 2360

Question: With `COc1cc(/C=C/c2ccc(O)cc2)cc(OC)c1` as the compound, how does the Ratio read?
Answer: 4610

Question: With `Oc1cc(O)cc(/C=C/c2ccc(O)cc2O)c1` as the compound, how does the Ratio read?
Answer: 7960

Question: Which Ratio does the source give for `Oc1cc(O)cc(/C=C/c2ccc(O)c(O)c2)c1` here?
Answer: 16600

Question: For `Oc1ccc(/C=C/c2cc(O)cc(O)c2)cc1`, which Ratio is on record?
Answer: 7080

experiment: Antioxidant activity assessed as rate constant for singlet oxygen scavenging activity in ethanol-water (1:1 v/v) mixture using phosphorescence-based single-photon-counting method; type: functional

Question: Which K does the source give for `Cc1c(C)c2c(c(C)c1O)CCC(C)(C(=O)O)O2` (centres undefined) here?
Answer: 6.22 ×10⁷ /M/s

experiment: Antioxidant activity assessed as rate constant for photolysis-induced methyl radical scavenging activity using DMPO spin trap by ESR spectroscopic method; type: functional

Question: With `COc1ccc(/C=C/c2cc(O)cc(O)c2)cc1O` as the compound, how does the K read?
Answer: 3.1 ×10⁷ /M/s

Question: With `Cc1c(C)c2c(c(C)c1O)CCC(C)(C(=O)O)O2` (centres undefined) as the compound, how does the K read?
Answer: 7 ×10⁸ /M/s

Question: Which K does the source give for `Oc1cc(O)cc(/C=C/c2ccc(O)c(O)c2)c1` here?
Answer: 7.9 ×10⁷ /M/s

experiment: Antioxidant activity assessed as rate constant for singlet oxygen scavenging activity in aqueous solution by EPR spectroscopic method; type: functional

Question: With `Oc1ccc(/C=C/c2cc(O)cc(O)c2)cc1` as the compound, how does the K read?
Answer: 3.92 ×10⁹ /M/s

experiment: Antioxidant activity assessed as rate constant for singlet oxygen scavenging activity in methanol solution by EPR spectroscopic method; type: functional

Question: For `Oc1ccc(/C=C/c2cc(O)cc(O)c2)cc1`, which K is on record?
Answer: 2.55 ×10⁷ /M/s
